Data reported in article PMC5617480 (Oncotarget, 2017).

How the values were obtained:
BEL-7402 xenograft = assay: In vivo tumor growth inhibition, BEL-7402 xenograft model; details: BEL-7402 model; for Average tumor weight (mean ± SD g) / Tumor volume (End) / Body weight (End) / RBW (%) (End): day 18; for inhibition in weight: p<0.05
Experimental: In vivo anticancer efficacy of chiral platinum(II) complex 6 was evaluated using BEL-7404 and BEL-7402 xenograft mouse models. BEL-7404 and BEL-7402 cells were injected into nude mice. The mice were randomized into the control group, complex 6-treated group, and the positive control group (n = 6/group). When the volume of tumor was about 80 mm^3, complex 6 was given at a high (8 mg/kg) and low (4 mg/kg) dosage daily for 18 days, 5-FU (20 mg/kg every two days) and Cisplatin (2 mg/kg every two days) were used as a positive control in the BEL-7404 and BEL-7402 xenograft model, respectively.
To evaluate the vivo anticancer efficacy of complex 6, BEL-7404 and BEL-7402 xenograft mouse models (BALB/c nude mice, female for BEL-7404 model, 17–20 g, 6–7 weeks old; male for BEL-7402 model, 18-21 g, 6–7 weeks old) were used. Furthermore, animal used, maximum tolerated dose (MTD) analysis, acute toxicity studies and antitumor activity toward BEL-7404 and BEL-7402 models in vivo of complex 6, was similar to Chen reported.
H21T (3.5 pmol; 5’-G [T AG ] -3’), primer TS (18 pmol; tumor tissue were cut into about 1.5 mm3 small pieces, and […]
5’-[…]-3’), KCl (63 mM), then transplanted into the right flank of nude mice. When EGTA (1 mM), MgCl (1.5 mM), Tween-20 (0.005%), the average tumors reach a volume of about 80 mm3, the […]
primer NT (7.5 pmol; 5’-[…]-3’), mice were randomized into 4 groups (n=6), received the […]
TSNT internal control (0.01 amol; 5’-[…] following treatments: (a) control, received saline solvent; […]
-3’), primer (b) complex 6 at doses of 8.0 mg/kg daily (dissolve in […]
Cxext (22.5 pmol; 5’-[…] saline, iv); (c) complex 6 at doses of 4.0 mg/kg daily; […]
[…]-3’), Taq DNA polymerase (2.5 U), and (d) in BEL-7404 model, 5-fluorouracil (5-Fu) as positive telomerase (100 ng). Complexes or/and distilled water control at 20 mg/kg per two days (dissolve in saline, iv); was added ([…]). PCR was performed in an Eppendorf in BEL-7402 model, cisplatin as positive control at 2 mg/ Master cycler equipped with a hot lid and incubated for kg per two days (dissolve in saline, iv).
30.0 min at 30 °C, followed by 92 °C 30 s, 52 °C 30 s, The tumor volumes and body weight was monitored and 72°C 30 s for 30.0 cycles. After amplification, 8.0 every 3 days, The tumor volumes were estimated by […] loading buffer (5×TBE buffer, 0.2% xylene cyanol, measuring the two dimensions of the tumors using caliper and 0.2% bromophenol blue ) were added to the reaction. and calculated by the formula 1 [1, 6, 14]:
An […] of aliquot was loaded onto a nondenaturing V = (length × width2)/2(1) acrylamide gel (19:1, 16%) in 1×TBE buffer and resolved at 200.0 V for 1.0 h. Gels were fixed and then stained with On day 18, the mice were sacrificed, and tumor AgNO3 [8–11]. tissue were dissected out and weighted, tumor growth inhibition rate calculated using formulas 2 and 3 [1, 6,
In order to verify whether complexes 4–6 can TGI (%) = (ΔVc − ΔVt)/ΔVc×100%(2) directly regulate c-myc promoter (Pu27) and the IR(%) = (Wc − Wt)/Wc×100%(3) expression of hTRET in BEL-7404 cells, consequently Where ΔVt = tumor volumefinal −tumor volumeinitial inhibiting the telomerase function, we constructed EGFP for compound treated group, ΔVc=tumor volumefinal − and c-myc gene vectors according to those illustrated tumor volumeinitial for vehicle control group; Wt and Wc in Chalfie, Chen and He previous work. The detailed mean the average tumor weight of complex-treated and procedures for the construct of gene (c-myc and EGFP vehicle controlled group respectively. genes) vectors, and the method of transfection assays REFERENCES have been reported by Chalfie, Chen and He [1, 6, 9, 12,

Hep-G2 cells = test system: Hep-G2 cells; set-up: method as in earlier work; details: Hep-G2, 48 h; ref [1]; cited from earlier work
[1] = Cisplatin 2.0 mg/kg per two days iv

N.N.[Cl][Pt][Cl] [cisplatin, reference compound]
Tumor volume (start) (BEL-7402 xenograft; [1]): 78.6±37.7 mm3
Average tumor weight (mean ± SD g) (BEL-7402 xenograft; [1]): 0.38 ± 0.18 g
Tumor volume (End) (BEL-7402 xenograft; [1]): 329.9±155.2 mm3

cis-[PtCl2(S-(–)-FOA)] [complex 6]
inhibition in weight (BEL-7402 xenograft; 4 mg/kg daily for 18 days): 32.9%
inhibition in weight (BEL-7402 xenograft; 8 mg/kg daily for 18 days): 47.1%
Body weight (start) (BEL-7402 xenograft; 6 4.0 mg/kg daily iv): 19.1 ± 1.6 g
Tumor volume (start) (BEL-7402 xenograft; 6 4.0 mg/kg daily iv): 78.7±58.4 mm3
Average tumor weight (mean ± SD g) (BEL-7402 xenograft; 6 4.0 mg/kg daily iv): 0.84 ± 0.39 g
Body weight (End) (BEL-7402 xenograft; 6 4.0 mg/kg daily iv): 22.3 ± 1.3 g
RBW (%) (End) (BEL-7402 xenograft; 6 4.0 mg/kg daily iv): 117.7±6.3%
Tumor volume (End) (BEL-7402 xenograft; 6 4.0 mg/kg daily iv): 648.8±242.1 mm3
TGI (%) (BEL-7402 xenograft; 6 4.0 mg/kg daily iv, day 18, by tumor volume): 32.9%
Inhibition of tumor growth (%) (BEL-7402 xenograft; 6 4.0 mg/kg daily iv, day 18, by tumor weight): 29.4%
Body weight (start) (BEL-7402 xenograft; 6 8.0 mg/kg daily iv): 20.2 ± 0.7 g
Tumor volume (start) (BEL-7402 xenograft; 6 8.0 mg/kg daily iv): 79.4±28.4 mm3
Average tumor weight (mean ± SD g) (BEL-7402 xenograft; 6 8.0 mg/kg daily iv): 0.67 ± 0.46 g
Body weight (End) (BEL-7402 xenograft; 6 8.0 mg/kg daily iv): 23.4 ± 1.4 g
RBW (%) (End) (BEL-7402 xenograft; 6 8.0 mg/kg daily iv): 115.5±4.6%
Tumor volume (End) (BEL-7402 xenograft; 6 8.0 mg/kg daily iv): 521.0±319.9 mm3

O=C(NC[C@H](O)CO)c1cnc2c3c(cccc13)-c1ccccc1C2=O.[Cl-].[Cl-].[Pt+2] [ligand 3, S-(–)-FOA]
IC50 (Hep-G2 cells): 24.9 ± 0.4 µM

O=C(NC[C@@H](O)CO)c1cnc2c3c(cccc13)-c1ccccc1C2=O.[Cl-].[Cl-].[Pt+2] [ligand 2, R-(+)-FOA]
IC50 (Hep-G2 cells): 38.9 ± 1.3 µM

O=C(NCC(O)CO)c1cnc2c3c(cccc13)-c1ccccc1C2=O.[Cl-].[Cl-].[Pt+2] (racemic) [ligand 1, R/S-(±)-FOA]
IC50 (Hep-G2 cells): 32.9 ± 0.5 µM
